Laboratory results taken from article PMC3630091, “A Mechanistic Paradigm for Broad-Spectrum Antivirals that Target Virus-Cell Fusion” (PLoS Pathogens, 2013).
Read-outs that look alike come from different tables or passages of the source.

How the values were obtained:
HIV = test: microbe, parasite or virus in culture; assay type: cell-based; conditions: Human immunodeficiency virus 1, 10 min, read-out: IC50 ± SD (nM) (N=x) HIV
NDV = test: microbe, parasite or virus in culture; assay type: cell-based, Newcastle disease virus; conditions: read-out: IC50 ± SD (nM) (N=x) NDV
HSV = test: microbe, parasite or virus in culture; assay type: cell-based, Herpes simplex virus-1; conditions: Human alphaherpesvirus 1, 10 min, read-out: IC50 ± SD (nM) (N=x) HSV
[1] = Absorbance spectra / UV-visible spectra integration; assay type: physicochemical; conditions: for Abs Max (λmax): 100 µM in DMSO; for AUC (400-750 nm): integrated absorption divided by concentration, normalized relative to LJ001 (LJ001 = 100)
[2] = Singlet oxygen quantum yield measurements; assay type: physicochemical; conditions: error is one standard deviation; for 1O2 QY 355 nm: in CD2Cl2, excitation 355 nm
[3] = Singlet oxygen quenching measurements; assay type: physicochemical; conditions: 355 nm with C60 as external sensitizer; error is one standard deviation
[4] = Clinical observations after single dose in PK study; assay type: in vivo, female Balb/c mice; conditions: single dose 2.5 mg/kg ip, about 15 min post administration
Experimental: Dose administration. […] These mice were replaced and the dose level was reduced to 5 mg/kg. […] Hypoactivity was the only clinical observation noted in some of the mice treated with the 3 test articles at 10 and 100 mg/kg po. […] These animals were replaced and administered with the lower ip dose level of 1.25 mg/kg and underwent blood collections. Mice received single ip doses of 1.25 mg/kg (JL109 and JL118) or 5 mg/kg (JL122) and po doses of 10 mg/kg (JL109, JL118, JL122), 50 mg/kg (JL109, JL118), or 100 mg/kg (JL109, JL118, JL122).

in vitro = conditions: human
Pharmacokinetics in mice = conditions: female, Balb/c, mouse, in vivo; for AUC(0-t) / Cmax: po
[5] = reference sensitizer value; cited from earlier work
[6] = Acrylamide quenching in POPC vesicles; assay type: physicochemical; conditions: >50-fold molar excess of lipid; 3 mM POPC vesicles
[7] = Membrane partition into POPC LUV (fluorescence); conditions: POPC LUV; fluorescence intensity ratio from curve fitting
[8] = Membrane partition into HIV membrane-like mixture LUV (fluorescence); conditions: HIV-like mixture LUV; fluorescence intensity ratio from curve fitting

CCN1C(=S)O/C(=C\c2ccc(-c3ccc(OC)cc3OC)o2)C1=S [JL109, (Z)-5-((5-(2,4-dimethoxyphenyl)furan-2-yl)methylene)-3-ethyloxazolidine-2,4-dithione]
IC50 (HIV): 4.5 ± 4.8 nM
IC50 (NDV; avian paramyxovirus 1, 10 min): 3.8 ± 3.9 nM
IC50 (HSV): 0.7 nM
Abs Max (λmax) [1]: 550 nm
AUC (400-750 nm) [1]: 178
1O2 QY 355 nm [2]: 0.37 ± 0.02
1O2 QY 532 nm ([2]; in CD2Cl2, excitation 532 nm): 0.38 ± 0.02
kT × 10-7 [3]: 2.000 ± 0.100 M-1s-1
clinical observations [4]: deaths occurred in the initial 3 animals
CC50 (in vitro): 8510 nM
MRT last (Pharmacokinetics in mice): 4.5 to 10 h
Tmax (Pharmacokinetics in mice): 0.25 to 1 h
AUC(0-t) (Pharmacokinetics in mice; 10 mg/kg): 354 ng·h/mL
Cmax (Pharmacokinetics in mice; 10 mg/kg, po 10 mg/kg): 88.2 ng/mL
AUC(0-t) (Pharmacokinetics in mice; 50 mg/kg): 595 ng·h/mL
Cmax (Pharmacokinetics in mice; 50 mg/kg, po 50 mg/kg): 127 ng/mL
AUC(0-t) (Pharmacokinetics in mice; 100 mg/kg): 538 ng·h/mL
Cmax (Pharmacokinetics in mice; 100 mg/kg, po 100 mg/kg): 78.2 ng/mL

C1=Cc2nc1c(-c1ccccc1)c1ccc([nH]1)c(-c1ccccc1)c1nc(c(-c3ccccc3)c3ccc([nH]3)c2-c2ccccc2)C=C1 [TPP]
1O2 QY of reference compound at 532 nm [5]: 0.62

CCN1C(=O)/C(=C/c2ccc(-c3ccccc3)o2)OC1=S [JL101]
IC50 (NDV): 8800 nM

C=CCN1C(=O)S/C(=C\c2ccc(-c3ccccc3)o2)C1=O [LJ025, (Z)-3-allyl-5-((5-phenylfuran-2-yl)methylene)thiazolidine-2,4-dione]
fraction protected from the water-soluble quencher (acrylamide) [6]: over 85%
Abs Max (λmax) [1]: 405 nm
AUC (400-750 nm) [1]: < 100
1O2 QY 355 nm [2]: 0
kT × 10-7 [3]: 0.191 ± 0.010 M-1s-1
melting point: 149 to 151 °C
CC50 (in vitro): > 50000 nM
IL / Iw [7]: 2.79
IL / Iw [8]: 3.60
